Measurements taken from patent US20100029732A1, “Combinations of Beta-2-Adrenoceptor Agonistic Benzothiazolone” (ASTRAZENECA AB, priority 2007, published 2010).
Counter-ions that a name gives are not always drawn.

Legend:
[1] = test system: guinea pig trachea contracted with methacholine; experiment: Bronchodilator activity in guinea pig isolated tracheal ring preparation: onset measurements; details: rings contracted with methacholine 1 μM, mean±s.e.mean, n=4
Experimental: Guinea pigs (300-500 g) were killed by cervical dislocation and the trachea was isolated. The trachea was cut into segments 2-3 cartilage rings in width and suspended in 10 ml organ baths in modified Krebs' solution (mM; NaCl, 90; NaHCO3, 45; KCl, 5; MgSO4.7H2O, 0.5; Na2HPO4.2H2O, 1; CaCl2, 2.25; glucose, 10; pH 7.4) gassed with 5% CO2, 95% O2 at 37° C.). The tracheal rings were attached to an isometric force transducer for the measurement of isometric tension. The tissues were washed and a force of 1 g was applied to each tissue. The rings were contracted with methacholine (1 μM). Once the contraction had reached a plateau, vehicle (0.01% DMSO in distilled H2O), compound A (3 nM), roflumilast (1 μM) or a combination of compound A (3 nM) and roflumilast (1 μM) was added and the tissue left until the response had reached a plateau. Data were collected using the Chart 4 software (ADInstruments, Charlgrove, UK). The time to 90% of the maximum effect of the bronchodilator (onset time) was measured and expressed in min (mean±s.e.mean).

Adrenergic β2 = molecular target: T1, Adrenergic β2 (Homo sapiens, UniProt P07550); experiment: Adrenergic β2 mediated cAMP production in H292 cells (AlphaScreen); type: cell-based
T1 construct: Adherent H292 cells were removed from tissue culture flasks; endogenous in cells; host or cells: H292 cells
T1 sequence (P07550 whole entry): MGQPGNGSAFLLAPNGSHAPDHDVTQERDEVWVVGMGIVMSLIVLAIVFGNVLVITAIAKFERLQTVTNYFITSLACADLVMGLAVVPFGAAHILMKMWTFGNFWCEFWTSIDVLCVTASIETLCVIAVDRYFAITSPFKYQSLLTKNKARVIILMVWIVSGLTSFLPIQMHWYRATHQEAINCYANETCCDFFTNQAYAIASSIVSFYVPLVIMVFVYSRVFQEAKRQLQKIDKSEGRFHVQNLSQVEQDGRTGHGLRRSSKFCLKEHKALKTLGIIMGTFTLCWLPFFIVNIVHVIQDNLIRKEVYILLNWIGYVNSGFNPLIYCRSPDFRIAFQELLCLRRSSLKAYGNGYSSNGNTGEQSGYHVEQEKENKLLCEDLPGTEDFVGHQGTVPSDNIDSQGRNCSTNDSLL
Experimental: Adrenergic β2 Mediated cAMP Production
H292 cells were grown in 225 cm2 flasks incubator at 37° C., 5% CO2 in RPMI medium containing, 10% (v/v) FBS (foetal bovine serum) and 2 mM L-glutamine.
Adherent H292 cells were removed from tissue culture flasks by treatment with Accutase™ cell detachment solution for 15 minutes. Flasks were incubated for 15 minutes in a humidified incubator at 37° C., 5% CO2. Detached cells were re-suspended in RPMI media (containing 10% (v/v) FBS and […] L-glutamine) at 0.05×10^6 cells per 1 mL. 5000 cells in 100 μL were added to each well of a tissue-culture-treated 96-well plate and the cells incubated overnight in a humidified incubator at 37° C., 5% CO2. The culture media was removed and cells were washed twice with 100 μL assay buffer and replaced with 50 μL assay buffer (HBSS solution containing 10 mM HEPES pH7.4 and 5 mM glucose). […]
The concentration of cAMP (cyclic adenosine monophosphate) in the cell lysate was determined using AlphaScreen™ methodology. […] The AlphaScreen™ signal was measured using an EnVision spectrophotometer (Perkin-Elmer Inc.) with the recommended manufacturer's settings. cAMP concentrations were determined by reference to a calibration curve determined in the same experiment using standard cAMP concentrations. […] Intrinsic Activity was expressed as a fraction relative to the maximum activity determined for formoterol in each experiment. […]

[2] = test system: LPS-induced intra-alveolar neutrophilia; experiment: Intra-alveolar neutrophil migration after intratracheal LPS challenge in the CRL:CD rat; type: in vivo; details: Compound W 3 ng/kg intratracheal 30 min prior to LPS 10 μg/kg; BAL 4 hr; mean±s.e.mean
Experimental: LPS challenge in CRL:CD rats causes an influx of neutrophils into the lungs. Under recoverable gaseous anaesthesia (5% isoflourane in oxygen), rats were dosed via the intatracheal route with vehicle (0.05M phosphate, 0.1% Tween 80, 0.6% saline, pH 6), or compound 30 min before challenge with an intratracheal dose of 10 μg/kg LPS.
The rats (250-400 g) were euthanized 4 hr after LPS challenge with 1 mL pentobarbitone sodium. A tracheotomy was performed and a calinula inserted. The airway was then lavaged using 3 mL Isoton at room temperature. The Isoton (BeckmanCoulter, High Wycombe, UK) was left in the airway for 10 seconds before being removed. The bronchio-alveolar lavage (BAL) fluid containing inflammatory cells was placed into a 15 mL centrifuge tube and kept on ice. This process was repeated three times. An aliquot of BAL fluid was removed and the inflammatory cells were counted on Sysmex (Sysmex UK, Milton Keynes). Neutrophils were expressed in millions/animal (mean±s.e.mean).

[3] = test system: methacholine-induced bronchoconstriction; experiment: Lung function in anaesthetised guinea-pigs, methacholine challenge; type: in vivo, Dunkin-Hartley guinea pig; details: tiotropium bromide 0.03 μg/kg intratracheal 2 hours prior; after 5 μg/kg i.v. methacholine
Experimental: Male Dunkin-Hartley guinea pigs (300-600 g) were weighed and dosed with vehicle (0.05M phosphate, 0.1% Tween 80, 0.6% saline, pH 6) or compound via the intratracheal route under recoverable gaseous anaesthesia (5% halothane in oxygen). Animals were dosed with compound or vehicle two hours prior to the administration of histamine or methacholine.
Guinea pigs were anaesthetised with pentobarbitone (1 mL/kg of 60 mg/mL solution i.p.) approximately 30 minutes prior to the first bronchoconstrictor administration. The trachea was cannulated and the animal ventilated using a constant volume respiratory pump (Harvard Rodent Ventilator model 683) at a rate of 60 breath/min and a tidal volume of 5 ml/lkg. […]
The animals were transferred to a Flexivent System (SCIREQ, Montreal, Canada) in order to measure airway resistance. […] Respiratory resistance was measured using the Flexivent “snapshot” facility (1 second duration, 1 Hz frequency). […] After each administration of bronchoconstrictor the peak resistance value was recorded. […] Percentage bronchoprotection produced by a compound was calculated at each dose of brochoconstrictor as follows:
Where % change Rveh is the mean of the maximum percentage change in airway resistance in the vehicle treated group. The results reported were measured after 5 μg/kg histamine or methacholine and were expressed as percentage bronchoprotection (mean±s.e.mean).

## CCN(CC)CCN(CCNCCc1ccc(O)c2[nH]c(=O)sc12)C(=O)CCOCCc1cccc2ccccc12 [Compound A, N-[2-(Diethylamino)ethyl]-N-(2-{[2-(4-hydroxy-2-oxo-2,3-dihydro-1,3-benzothiazol-7-yl)ethyl]amino}ethyl)-3-[2-(1-naphthyl)ethoxy]propanamide dihydrobromide]
[1]; compound A 3 nM
  onset time (time to 90% of the maximum effect of the bronchodilator): 16 ± 3.0 min
Adrenergic β2; Intrinsic Activity as fraction relative to the maximum activity of formoterol
  β2 Int Act: 0.8

## CNC(=O)c1cc(Cl)c(OC(C)(C)C(=O)O)cc1OC[C@@H](O)CN1CCC2(CC1)Cc1cc(Cl)ccc1O2 [Compound W, 2-{2-Chloro-5-{[(2S)-3-(5-chloro-1′H,3H-spiro[1-benzofuran-2,4′-piperidin]-1′-yl)-2-hydroxypropyl]oxy}-4-[(methylamino)carbonyl]phenoxy}-2-methylpropanoic acid]
[2]
  BAL neutrophils: 6.3±1.1 million/animal

## CCN(CC)CCN(CCNCCc1ccc(O)c2[nH]c(=O)sc12)C(=O)CCOCCc1cccc2ccccc12 [N-[2-(Diethylamino)ethyl]-N-(2-{[2-(4-hydroxy-2-oxo-2,3-dihydro-1,3-benzothiazol-7-yl)ethyl]amino}ethyl)-3-[2-(1-naphthyl)ethoxy]propanamide]
Adrenergic β2; over adrenergic α1D, adrenergic β1 and dopamine D2 activities
  selectivity of β2 adrenoceptor agonism: ≥ 10 fold

## O=C(Nc1c(Cl)cncc1Cl)c1ccc(OC(F)F)c(OCC2CC2)c1 [roflumilast, 3-(cyclopropylmethoxy)-N-(3,5-dichloro-4-pyridinyl)-4-(difluoromethoxy)benzamide, reference compound]
[1]; roflumilast 1 μM
  onset time (time to 90% of the maximum effect of the bronchodilator): 26 ± 1.4 min

## C[N+]1(C)[C@@H]2C[C@@H](OC(=O)C(O)(c3cccs3)c3cccs3)C[C@H]1[C@@H]1O[C@@H]12 [tiotropium bromide, Tiotropium bromide]
[3]
  inhibition of methacholine-induced bronchoconstriction: 13%
